Like-named read-outs stand apart in the source and are kept apart here.
Tests used:
[1] = final concentration 2% by weight
Procedure: A similar test is carried out in order to determine the rate of dissolution of the flakes in acrylic acid.
The test consists in defining the time necessary to dissolve the amount of flakes necessary in order to obtain a final concentration of hydroquinone in the acrylic acid of 2% by weight.

[2] = undried product
Procedure: The densities are measured on an undried product according to the test described in the European Phatmacopeia standard [Volume 1, p. 256 (2004), 5th edition], with the only difference that the 250 ml of test specimen is replaced by a 1 liter test specimen.

[3] = particles with dimensions of less than 100 μm
From the text: The level of the fine particles is defined as the percentage by weight of the particles with dimensions of less than 100 μm.
Particles which pass through a sieve having a mesh size of 100 μm are regarded according to the invention as fine particles.

[4] = stirred, final concentration 4.8% by weight
Procedure: These measurements correspond to a test which consists in measuring the time necessary to dissolve said amount in water maintained at ambient temperature (20° C.) and kept stirred, for example using a propeller stirrer with 4 inclined blades.

[5] = sieve mesh size 2.5 mm
From the text: In order to define the particle size of the product of the invention, the percentage by weight of the particles with dimensions of less than 2.5 mm, that is to say particles which pass through a sieve having a mesh size of 2.5 mm, is also defined.

Compound | Dissolution time in acrylic acid at 20° C. (production of a 2.0% by weight solution) [1] | Loose bulk density [2] | Tapped bulk density [2] | % by weight of particles passing through a sieve with a mesh size of 100 μm (level of fine particles) [3] | Dissolution time in water at 20° C. (production of a 4.8% by weight solution) [4] | percentage by weight of the particles with dimensions of less than 2.5 mm [5] | % by weight of particles passing through a sieve with a mesh size of 100 μm (level of fine particles) ([3]; listed as hydroquinone in the powder form)
Oc1ccc(O)cc1 [Example 1, hydroquinone] | 45 min | 0.52 g/mL | 0.70 g/mL | 0.8% by weight | 21 min |  | 
Oc1ccc(O)cc1 [Example 2, hydroquinone] | 30 min | 0.47 g/mL | 0.65 g/mL | 0.7% by weight | 15 min |  | 
Oc1ccc(O)cc1 [Example 3, hydroquinone] | 35 min | 0.48 g/mL | 0.67 g/mL | 0.9% by weight | 18 min |  | 
Oc1ccc(O)cc1 [Example 4, hydroquinone] | 30 min | 0.46 g/mL | 0.61 g/mL | 0.8% by weight | 14 min |  | 
Oc1ccc(O)cc1 [Example 5, hydroquinone] | 30 min | 0.53 g/mL | 0.66 g/mL | 0.9% by weight | 14 min |  | 
Oc1ccc(O)cc1 [hydroquinone powder, hydroquinone] | 20 min |  |  |  | 9 min | 100 % by weight | ~20 % by weight

Reference: patent US8557380B2, “Form of hydroquinone and production thereof” (Rhodia Operations, priority 2006, dated 2013)
